Test results as given in US20240000724A1, “Compositions and Methods for Treatment or Prevention of Oral Mucositis” (PATHWAYS BIOSCIENCE, LLC, priority 2015, published 2024).
Entries after “also recorded” stand apart in the source; their conditions may differ. Like-named read-outs stand apart in the source and are kept apart here.

How the values were obtained:
[1] = test system: Nrf2 (ARE-driven luciferase gene expression); assay: ARE-driven luciferase promoter-reporter assay in stably transfected human cancer cell lines; format: cell-based
Description: As an example of the properties of PB201, cell lines were cultured which had been stably transfected with constructs of the luciferase gene. This luciferase gene was driven in its promoter region by copies of the ARE Nrf2-binding sequence, known as promoter-reporter constructs (Simmons, Fan, Yeoman, Wakefield and Ramabhadran, NRF2 Oxidative Stress Induced by Heavy Metals is Cell Type Dependent, Curr Chem Genomics 5, 1-12 (2011); Shukla, Huang, Simmons, Tice, Witt, Vanleer, Ramabhadran, Austin and Xia, Profiling environmental chemicals for activity in the antioxidant response element signaling pathway using a high throughput screening approach, Environ Health Perspect 120, 1150-1156 (2012)).
Briefly, the stably transfected cells of types HepG2 (human liver), AREc32 (human breast), MCF7 (human breast), A549 (human lung), 293T (human kidney), and A172 (human brain) were seeded at low density in 24-well plates and incubated at 37° C. with 10% CO2. After 24 h various concentrations of combinations of agents were added to the cells. After an additional 18 h of incubation, the cells were lysed in their wells with 100 μl of a lysing buffer that contains 3.5 mM sodium pyrophosphate to stabilize light output by luciferase. A 20 μl aliquot of cell lysate was added to a small test tube, placed in a BD Monolight 3010 luminometer for background luminescence, and then 50 μl of 1 mM luciferin was injected into the tube. Relative Light Units integrated for 10 sec were measured for each sample.

[2] = test system: HepG2 cells; assay: Affymetrix PrimeView gene expression array of PB201-treated HepG2 cells; format: cell-based; conditions: Homo sapiens, 1.5 micrograms/mL, 18 hours
Description: As an example of the cell protective mechanisms induced by PB201 treatment, gene upregulation in cells treated with PB201 was examined. Briefly, cultured HepG2 liver cells were treated with PB201 at 1.5 micrograms/mL concentration for 18 hours, then total RNA was extracted from the HepG2 cells by using the RNeasy Total RNA Isolation Kit (QIAGEN Inc. Valencia, California, USA). The concentration of each sample was determined based on the absorbance at 260 nm (A260). The purity of each sample was determined based on the ratio of A260 to A280. A range of 1.9-2.1 was considered adequately pure. The integrity of Total RNA samples was verified by Agilent 2200 Tape Station. Total RNA (250 ng) was converted to double-stranded cDNA (ds-cDNA) by using the cDNA synthesis kit (Affymetrix). An oligo-dT primer containing a T7 RNA polymerase promoter was utilized. The ds-cDNA was then purified and recovered by using purification beads (Affymetrix). Next, in vitro transcription was performed to generate biotin-labeled cRNA using a RNA Transcript Labeling Kit (Affymetrix). Biotin-labeled cRNA was purified using an RNeasy affinity column (Qiagen).
To ensure optimal hybridization to the oligonucleotide array, the cRNA was fragmented. Fragmentation was performed such that the cRNA fragments are between 50-200 bases in length by incubating the cRNA at 94° C. for 35 min in a fragmentation buffer. The sample was then added to a hybridization solution containing 100 mM IVIES, 1 M Na+, and 20 mM EDTA in the presence of 0.01% Tween 20. The final concentration of the fragmented cRNA was […]. Hybridization was performed by incubating 200 uL of the sample to the Affymetrix GeneChip® PrimeView™ human gene expression array (Affymetrix Inc., Santa Clara, California, USA) at 45° C. for 16 hours using a GeneChip® Hybridization Oven 640 (Affymetrix).
After hybridization, the hybridization solutions were removed and the arrays were washed and stained with Streptavidin-phycoerythrin using a GeneChip® Fluidics Station 450 (Affymetrix). Arrays were read at a resolution of 2.5 to 3 microns using the GeneChip Scanner 3000 (Affymetrix). Each gene was represented by the use of −11 probes per transcript and many control probes. The Command Console GeneChip software program was used to determine the intensity of expression for all genes on the array. For this experiment, fold-induction of genes by PB201 treatment of HepG2 cells was calculated compared to the average intensity observed in control HepG2 cells in culture solution without any added stimulus such as PB201.

[3] = Aqueous solubility / visual dissolution in PBS with and without HPBCD; format: physicochemical; conditions: for Aqueous solubility alone: water or aqueous solutions, no solubility enhancer
Description: In this example, approaches were used to increase the aqueous distribution of the otherwise relatively insoluble 1,3-diphenyl-1,3-propanedione (DBM) by adding 2-hydroxypropyl beta-cyclodextrin (HPBCD) at a molar ratio (DBM:HPBCD) of 1:3. […] To verify its presence in the aqueous solutions, the samples were tested for activity of PB201 using HepG2-ARE promoter/reporter cells, which are responsive to PB201 and other Nrf2-activators by promoting the expression of luciferase.

[4] = test system: Interleukin-8 (IL-8) release, primary human lung epithelial cells; assay: IL-8 release from primary human lung epithelial cells stimulated with cigarette smoke extract; format: cell-based; conditions: primary human lung epithelial cells exposed to CSE for 7 days, vs untreated CSE-stimulated cells
Excerpt: As an example of the cell protective mechanisms induced by PB201 treatment, release of the proinflammatory cytokine Interleukin-8 (IL-8) was attenuated in primary human lung epithelial cells treated with PB201 compared to untreated cells when both were stimulated with cigarette smoke extract (FIG. 9).

[5] = test system: oral mucositis; assay: Oral mucositis in a mammal receiving radiation treatment or chemotherapy, topical oral administration; format: in vivo; conditions: topical within oral cavity daily, vs untreated or placebo
Description: A formulation of PB201 was administered topically within the oral cavity daily to a mammal receiving radiation treatment or chemotherapy that can cause oral mucositis as a side effect. PB201 administration decreased the frequency and/or severity of the oral mucositis as compared to untreated or placebo treated subjects.

O=C(CC(=O)c1ccccc1)c1ccccc1 [PB201, 1,3-diphenyl-1,3-propanedione]
Induction of Nrf2-dependent luciferase gene expression ([1]; A172 human brain cell line, other experiments (FIG. 5)): lower, but measurable, induction
Nrf2 gene activation and luciferase expression ([1]; brain cells (A172), this experiment (FIGS. 2-4)): no activation
Nrf2 gene activation and luciferase expression ([1]; breast cells (AREc32, MCF7), 18 h incubation): exhibited Nrf2 gene activation and luciferase expression
Nrf2 gene activation and luciferase expression ([1]; kidney cells (293T), 18 h incubation): exhibited Nrf2 gene activation and luciferase expression
Nrf2 gene activation and luciferase expression ([1]; liver cells (HepG2), 18 h incubation): exhibited Nrf2 gene activation and luciferase expression
Nrf2 gene activation and luciferase expression ([1]; lung cells (A549; constitutive Nrf2 activation due to mutation)): lesser activation; also recorded: low or negative response
fold induction at 1.5 µg/mL ([2]; vs control HepG2, read-out: Fold induction by PB201: AGPAT9): 2.46
fold induction at 1.5 µg/mL ([2]; vs control HepG2, read-out: Fold induction by PB201: AKR1B10///AKR1B15): 5.85
fold induction at 1.5 µg/mL ([2]; vs control HepG2, read-out: Fold induction by PB201: AKR1B15): 4.1
fold induction at 1.5 µg/mL ([2]; vs control HepG2, read-out: Fold induction by PB201: AKR1C1): 4.97
fold induction at 1.5 µg/mL ([2]; vs control HepG2, read-out: Fold induction by PB201: AKR1C2///LOC100653286): 6.56
fold induction at 1.5 µg/mL ([2]; vs control HepG2, read-out: Fold induction by PB201: AQP3): 3
fold induction at 1.5 µg/mL ([2]; vs control HepG2, read-out: Fold induction by PB201: BHMT2): 3.8
fold induction at 1.5 µg/mL ([2]; vs control HepG2, read-out: Fold induction by PB201: CCPG1///DYX1C1-CCPG1): 2.51
fold induction at 1.5 µg/mL ([2]; vs control HepG2, read-out: Fold induction by PB201: CYP4F3): 2.46
fold induction at 1.5 µg/mL ([2]; vs control HepG2, read-out: Fold induction by PB201: CYP4F11): 4.43
fold induction at 1.5 µg/mL ([2]; vs control HepG2, read-out: Fold induction by PB201: EID3): 4.18
fold induction at 1.5 µg/mL ([2]; vs control HepG2, read-out: Fold induction by PB201: FOS): 2.91
fold induction at 1.5 µg/mL ([2]; vs control HepG2, read-out: Fold induction by PB201: FTH1): 2.62
fold induction at 1.5 µg/mL ([2]; vs control HepG2, read-out: Fold induction by PB201: GCLM): 4.03
fold induction at 1.5 µg/mL ([2]; vs control HepG2, read-out: Fold induction by PB201: GLA): 2.59
fold induction at 1.5 µg/mL ([2]; vs control HepG2, read-out: Fold induction by PB201: GSTA1///GSTA2): 6.99
fold induction at 1.5 µg/mL ([2]; vs control HepG2, read-out: Fold induction by PB201: HMOX1): 3.64
fold induction at 1.5 µg/mL ([2]; vs control HepG2, read-out: Fold induction by PB201: KYNU): 3.9
fold induction at 1.5 µg/mL ([2]; vs control HepG2, read-out: Fold induction by PB201: MLLT11): 2.71
fold induction at 1.5 µg/mL ([2]; vs control HepG2, read-out: Fold induction by PB201: OSGIN1): 3.18
fold induction at 1.5 µg/mL ([2]; vs control HepG2, read-out: Fold induction by PB201: PANX2): 2.88
fold induction at 1.5 µg/mL ([2]; vs control HepG2, read-out: Fold induction by PB201: PTGR1): 4.79
fold induction at 1.5 µg/mL ([2]; vs control HepG2, read-out: Fold induction by PB201: SLC16A6): 3.8
fold induction at 1.5 µg/mL ([2]; vs control HepG2, read-out: Fold induction by PB201: SQSTM1): 2.84
fold induction at 1.5 µg/mL ([2]; vs control HepG2, read-out: Fold induction by PB201: SRXN1): 2.8
fold induction at 1.5 µg/mL ([2]; vs control HepG2, read-out: Fold induction by PB201: TEX19): 3
fold induction at 1.5 µg/mL ([2]; vs control HepG2, read-out: Fold induction by PB201: TRPV3): 3.51
fold induction at 1.5 µg/mL ([2]; vs control HepG2, read-out: Fold induction by PB201: TUBA4A): 2.55
Visual dissolution ([3]; 5 mg in 1 mL PBS with 93 mg HPBCD (3:1 mole ratio)): visually dissolved
Change of solubility in aqueous solution by 2-hydroxypropyl beta-cyclodextrin ([3]; HPBCD added, DBM:HPBCD 1:3): greatly increased
Aqueous solubility alone [3]: nearly insoluble
Aqueous solubility alone ([3]; listed as 1,3-diphenyl-1,3-propanedione): low aqueous solubility
IL-8 release [4]: significantly decreased; also recorded: attenuated
Frequency and/or severity of oral mucositis [5]: decreased
